According to PMC10298626 (International Journal of Molecular Sciences, 2023):
Marks after values point to notes of the source that are not given here.

What was measured:
Assay type in all cases: cell-based, Mouse
[1] = test system: LPS-stimulated RAW264.7 cells; assay: NO production (Griess reagent) in LPS-stimulated RAW264.7 cells
Experimental: A high concentration of NO promotes the synthesis of inflammatory mediators, leading to an inflammatory response, and has been reported to be a cause of various immune diseases. Therefore, this study was conducted to investigate the effect of coumarin derivatives on the production of NO induced by LPS stimulation in RAW264.7 cells. The cells were treated with coumarin derivatives at concentrations of 20, 40, and 80 μM for 2 h. Then, the cells were treated with LPS. After 20 h, the culture supernatant was recovered, and the amount of NO was measured. […] The anti-inflammatory activity of these derivatives depended on the position of the substituted group rather than the electron density of the substituted group.
The Griess reagent was used to measure NO production. RAW264.7 cells were seeded into a 96-well plate and cultured for 24 h. The cells were treated with 20, 40, and 80 μM of coumarin derivatives, cultured for 2 h, and then cultured with LPS (500 ng/mL) for 20 h. The same amount of cell supernatant and Griess reagent were used for the reaction, and absorbance was measured at 540 nm.

[2] = test system: IL-6; assay: IL-6 production (ELISA) in LPS-stimulated RAW264.7 cells; conditions: 20, 40, and 80 μM; 2 h pretreatment, LPS 500 ng/mL 20 h; concentration-dependent
Experimental: (§1) Macrophages stimulated by pathogens and cytokines are activated and play an important role in regulating the immune response, inflammatory response, and metabolism. LPS-activated RAW264.7 cells were treated with 20, 40, or 80 μM of coumarin derivative 2 and cultured for 24 h, and the levels of TNF-α and IL-6 in the culture medium were analyzed.
(§2) RAW264.7 cells were seeded into 96-well plates and cultured for 24 h. After 2 h of treatment with 20, 40, or 80 μM of coumarin compound derivative 2, the cells were incubated with LPS (500 ng/mL) for 20 h. ELISA kits (R & D Systems, Minneapolis, MN, USA) were used to collect and analyze the cell supernatants for TNF-α and IL-6.
(§3) Figure 3 Effects of coumarin derivative 2 on IL-6 and TNF-α production and mRNA expression in LPS-stimulated RAW264.7 cells. (a) Effect of coumarin derivative 2 on TNF-α and IL-6 production in RAW264.7 cells. The RAW264.7 cells (1 × 10^5/well, 96-well plates) were pretreated with coumarin derivative 2 (20, 40, and 80 μM) for 2 h and incubated with LPS (500 ng/mL) for 20 h. An ELISA kit was used to analyze cell supernatants for TNF-α and IL-6. (b) Effect of coumarin derivative 2 on mRNA expression of IL-6 and TNF-α in RAW264.7 cells. […] IL-6 and TNF-α mRNA expression levels were measured via a real-time quantitative reverse transcription polymerase chain reaction.

[3] = test system: TNF-α; assay: TNF-α production (ELISA) in LPS-stimulated RAW264.7 cells; conditions: 20, 40, and 80 μM; 2 h pretreatment, LPS 500 ng/mL 20 h; concentration-dependent
Experimental: as §1, §2, §3

[4] = test system: ERK; assay: LPS-induced phosphorylation of ERK (immunoblotting) in RAW264.7 cells; conditions: 20, 40, and 80 μM pretreatment 2 h; LPS 500 ng/mL 30 min
Experimental: (§4) RAW264.7 cells were seeded into 6-well plates (2 × 10^6 cells/well) and incubated for 24 h. The cells were incubated with 20, 40, and 80 μM of coumarin derivative 2 for 2 h, and then LPS (500 ng/mL) was added for 30 min (for phosphorylation of ERK, JNK, p38, and p65) and 24 h (for protein expression of iNOS).
(§5) The cells were washed with PBS and lysed with radioimmunoprecipitation assay buffer containing 1 mM dithiothreitol (Wako, Tokyo, Japan), phosphatase inhibitor cocktail, 1 mM phenylmethylsulfonylfluoride, 1 mM sodium orthovanadate (Sigma), and 10 mM β-glycerophosphate (Sigma). The extracted proteins were centrifuged at 13,000× g rpm, separated via sodium dodecyl sulfate polyacrylamide gel electrophoresis, and transferred to polyvinylidene fluoride membranes. Nonspecific proteins were blocked by adding 5% skim milk. After blocking, primary antibodies were incubated overnight at 4 °C. After washing with the PBS-T buffer, the secondary antibodies were treated at room temperature for 2 h. For detection, the antibodies were developed with Super Signal® West Femto Substrate (ThermoFisher, Waltham, MN, USA) and analyzed on a Fusion Solo Chemiluminescence System (Vilber Lourmat, Paris, France) ECL detection system.
(§6) Figure 5 Inhibitory effects of coumarin derivative 2 on LPS-induced phosphorylation of MAPKs and NF-κB p65 in RAW264.7 cells. […]

[5] = test system: NF-κB p65; assay: LPS-induced phosphorylation of NF-κB p65 (immunoblotting) in RAW264.7 cells; conditions: 20, 40, and 80 μM pretreatment 2 h; LPS 500 ng/mL 30 min
Experimental: as §4, §5, §6

N#CC1=C(N)Oc2c(c(=O)oc3ccccc23)C1c1cccc(F)c1 (stereo not drawn) [Coumarin derivative 2]
NO production, Average ([1]; 20 μM for 2 h, then LPS (500 ng/mL) 20 h, LPS alone 25.9, control 3.1): 22.53 µM
NO production, Average (μM) ([1]; 40 μM for 2 h, then LPS (500 ng/mL) 20 h, LPS alone 25.9, control 3.1): 15.24 *** μM
NO production, Average (μM) ([1]; 80 μM for 2 h, then LPS (500 ng/mL) 20 h, LPS alone 25.9, control 3.1): 10.17 *** μM
Anti-inflammatory effect (inhibition of NO secretion), in words ([1]; 20, 40, and 80 μM, compared with LPS-only treatment): inhibited NO secretion in a concentration-dependent manner
IC50 ([1]; Mus musculus, RAW264.7, read-out: IC50 of NO production inhibition): 33.4 µM
LPS-induced IL-6 level [2]: significantly reduced
LPS-induced TNF-α level [3]: significantly reduced
Phosphorylation of ERK [4]: inhibited
p65 phosphorylation [5]: inhibited
